Data published in paper PMC4578436, “Synthesis and evaluation of the biostability and cell compatibility of novel conjugates of nucleobase, peptidic epitope, and saccharide” (Beilstein Journal of Organic Chemistry, 2015).
Where a SMILES comes first, the peptide text is derived from it. The star is where a group is joined. Adenin9ylacetyl = Nc1ncnc2c1ncn2CC(=O)*

Assays:
[1] = target: T1, proteinase K (Parengyodontium album, UniProt P06873); experiment: biostability: incubation with proteinase K; format: in vitro ADME; settings: 24 h, 37 °C
T1 construct: purchased Sigma
Method: The existence of proteolytic enzymes in organism limits the applications of peptide-based biomaterials in vivo. […] When we changed the peptide sequence to EPTV, only 15% of 3 left.
Figure 3 Compounds remained after incubating with proteinase K (3.2 U/mL) for 24 h at 37 °C. (A) Each conjugate 1–8 is at the concentration of 0.2 mg/mL in HEPES buffer (pH 7.4). (B) Mixture of 1 + 8, 5 + 8, or 7 + 8 is in PBS buffer ([1] = [5] = [8] = 8.3 mM, pH 6.2). TEXT PRINTED IN THE PICTURE: (A) 4: Comp. remained %: Un-detectable | (A) 8: Comp. remained %: Un-detectable | (B) 8: Comp. remained %: Un-detectable (Mixtures: 7+8)
Starting materials and reagents were purchased from GL Biochem (Shanghai) Ltd. and Fisher Scientific without further purification unless otherwise noted. Proteinase K was purchased from Sigma (>800 unit/mL). The HeLa cell line (CCL-2) and the PC12 (CRL-1721.1) cell line were purchased from the American Type Culture Collection. All of the media were purchased from Invitrogen.

[2] = target: T1, proteinase K; settings: peptide sequence alone; cited from earlier work
From the text: This article reports the synthesis of a new class of conjugates containing a nucleobase, a peptidic epitope, and a saccharide and the evalution of their gelation, biostability, and cell compatibility. […] All the conjugates themselves (1–8) display excellent solubility in water without forming hydrogels. However, a mixture of 5 and 8 self-assembles to form nanofibers and results in a supramolecular hydrogel. The pr ...

T1 sequence (P06873 106-384): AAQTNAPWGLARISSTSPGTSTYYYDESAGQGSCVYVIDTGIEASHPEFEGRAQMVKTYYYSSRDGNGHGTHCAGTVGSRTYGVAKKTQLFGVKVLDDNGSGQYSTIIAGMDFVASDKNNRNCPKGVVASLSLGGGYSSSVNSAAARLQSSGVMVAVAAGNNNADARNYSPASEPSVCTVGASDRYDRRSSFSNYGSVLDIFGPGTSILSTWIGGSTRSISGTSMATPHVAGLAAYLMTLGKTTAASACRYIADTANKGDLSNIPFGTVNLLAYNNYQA

Row | Molecule | 8 remained after incubating the mixture 1 + 8 with proteinase K ([1]; mixture 1 + 8, each 8.3 mM in PBS buffer pH 6.2, proteinase K 3.2 U/mL) | 8 remained after incubating the mixture 5 + 8 (hydrogel) with proteinase K ([1]; mixture 5 + 8, each 8.3 mM in PBS buffer pH 6.2, proteinase K 3.2 U/mL) | 8 remained after incubating the mixture 7 + 8 with proteinase K ([1]; mixture 7 + 8 in PBS buffer pH 6.2, same condition as 5 + 8, proteinase K 3.2 U/mL) | proteolytic stability of the peptidic epitope itself [2]
1 | CC[C@H](C)[C@H](NC(=O)[C@H](CC(N)=O)NC(=O)[C@H](Cc1ccccc1)NC(=O)CNC(=O)[C@H](CC(C)C)NC(=O)Cn1cnc2c(N)ncnc21)C(=O)O [compound 8] (Adenin9ylacetyl-LGFNI-OH) | about 3% | about 50% | Un-detectable | 
2 | TTPV |  |  |  | proteolytic resistant
3 | LGFNI |  |  |  | susceptible to proteolysis
